Read-outs that look alike come from different tables or passages of the source. Values belong to the compound of their own block, whether it stands above or below them. Square brackets hold non-standard residues; d marks the D form. Peptide text beside a SMILES is read from it. * marks the point of attachment. X1 = CC(C)(O/N=C(\C(=O)N[C@@H]1C(=O)N2C(C(=O)[O-])=C(C[n+]3ccccc3)CS[C@H]12)c1csc(N)n1)C(=O)NCCCCCCN1C(=O)CC(*)C1=O
Assays:
[1] = test system: K. pneumoniae BL809453 (KPC); assay: microbe, parasite or virus in culture; type: cell-based; conditions: Klebsiella pneumoniae, 20 h, combinations: avibactam fixed 4 mg L^−1, clavulanic acid 2 mg L^−1, median (n = 3)
Procedure: (§1) The minimum inhibitory concentration (MIC) of the β‐lactam–peptide conjugates was determined by broth microdilution as previously described.^[ [17] ^] Briefly, in cation‐adjusted MHB II medium, a twofold serial dilution of the compounds was prepared in 96‐well round‐bottom polystyrene or polypropylene microtiter plates with each well containing 50 µL. The plates were inoculated with 50 µL bacterial suspension and the final inoculum, in a total volume of 100 µL, contained 5 × 10^5 CFU mL^−1. The microplates were incubated for 20 h at 37 ± 1 °C. The lowest concentration preventing visible bacterial growth was considered the MIC value. For susceptibility testing of combinations of β‐lactamase‐inhibitors with either a β‐lactam antibiotic or a β‐lactam–peptide conjugate, fixed concentrations of the inhibitors according to the EUCAST (European Committee on Antimicrobial Susceptibility Testing) guidelines (clavulanic acid = 2 mg L^−1, avibactam = 4 mg L^−1) were used.

[2] = test system: A. baumannii SC300007 (Oxa23); assay: microbe, parasite or virus in culture; type: cell-based; conditions: Acinetobacter baumannii, 20 h, combinations: avibactam fixed 4 mg L^−1, clavulanic acid 2 mg L^−1, median (n = 3)
Procedure: as §1

[3] = test system: K. pneumoniae ATCC 700 603 (SHV‐18); assay: microbe, parasite or virus in culture; type: cell-based; conditions: Klebsiella pneumoniae, 20 h; K. pneumoniae ATCC 700603 (SHV‐18); combinations: avibactam fixed 4 mg L^−1, clavulanic acid 2 mg L^−1; median (n = 3)
Procedure: as §1

[4] = test system: B. subtilis DSM 10; assay: microbe, parasite or virus in culture; type: cell-based
Procedure: as §1

[5] = test system: E. coli ATCC 25 922 (–); assay: microbe, parasite or virus in culture; type: cell-based; conditions: Escherichia coli, 20 h; E. coli ATCC 25922 (no β‐lactamase); combinations: avibactam fixed 4 mg L^−1, clavulanic acid 2 mg L^−1; median (n = 3)
Procedure: as §1

[6] = test system: K. pneumoniae 0 6841/Nr.45 (Oxa48); assay: microbe, parasite or virus in culture; type: cell-based; conditions: Klebsiella pneumoniae, 20 h; K. pneumoniae 06841/Nr.45 (Oxa48); combinations: avibactam fixed 4 mg L^−1, clavulanic acid 2 mg L^−1; median (n = 3)
Procedure: as §1

[7] = test system: E. faecalis ATCC 29212; assay: microbe, parasite or virus in culture; type: cell-based; conditions: E. faecalis ATCC 29212, median (n = 3)
Procedure: as §1

[8] = test system: E. casseliflavus ATCC 700327; assay: microbe, parasite or virus in culture; type: cell-based; conditions: E. casseliflavus ATCC 700327, median (n = 3)
Procedure: as §1

[9] = Scintigraphy in mice; type: in vivo, Swiss mice
Procedure: To enable radiolabeling of the β‐lactam–peptide conjugates, their peptide sequence was elongated by an N‐terminal D‐tyrosine. […] The solution was mixed with 5 MBq of iodine‐125 and radiolabeling was performed using the chloramine T method as previously described.^[ [35] ^] After 30 s, the reaction was quenched by the addition of a saturated methionine solution and the radiolabeled compound purified by reversed‐phase preparative radio‐HPLC (1100 series, Agilent Technologies, Santa Clara, CA, USA). Analysis was performed by analytical radio‐HPLC (1100 series, Agilent Technologies, Santa Clara, CA, USA) using a linear gradient from water (+ 0.1% TFA) to acetonitrile (+ 0.1% TFA) over 5 min at a flow rate of 2 mL min^−1.
All animal studies were approved by the Animal Care and Use committees from Regierungspräsidium Karlsruhe (Karlsruhe, Germany; reference number 35–9185.81/G‐199/21; date of approval: November 23, 2021). To obtain scintigraphic images, 1–3 MBq of the respective ^125I‐radiolabeled β‐lactam–peptide conjugate was intravenously injected into the tail vein of isoflurane anaesthetized female Wistar rats or Swiss mice. Scintigraphic images were taken with a γ‐camera (Biospace Lab, Nesles‐la‐Vallée, France) at 10 min, 1, 2, 3, and 24 h after injection of the compounds.

[10] = molecular target: T1, PBP2A (Bacillus subtilis, UniProt P54488); assay: Gel‐based PBP affinity assay (Bocillin FL competition); type: binding; conditions: B. subtilis membrane fractions, competition with Bocillin FL penicillin; compared with parent β‐lactam
T1 construct: endogenous in cells; host or cells: B. subtilis DSM 10, extracted membrane protein fraction
T1 sequence (P54488 whole entry): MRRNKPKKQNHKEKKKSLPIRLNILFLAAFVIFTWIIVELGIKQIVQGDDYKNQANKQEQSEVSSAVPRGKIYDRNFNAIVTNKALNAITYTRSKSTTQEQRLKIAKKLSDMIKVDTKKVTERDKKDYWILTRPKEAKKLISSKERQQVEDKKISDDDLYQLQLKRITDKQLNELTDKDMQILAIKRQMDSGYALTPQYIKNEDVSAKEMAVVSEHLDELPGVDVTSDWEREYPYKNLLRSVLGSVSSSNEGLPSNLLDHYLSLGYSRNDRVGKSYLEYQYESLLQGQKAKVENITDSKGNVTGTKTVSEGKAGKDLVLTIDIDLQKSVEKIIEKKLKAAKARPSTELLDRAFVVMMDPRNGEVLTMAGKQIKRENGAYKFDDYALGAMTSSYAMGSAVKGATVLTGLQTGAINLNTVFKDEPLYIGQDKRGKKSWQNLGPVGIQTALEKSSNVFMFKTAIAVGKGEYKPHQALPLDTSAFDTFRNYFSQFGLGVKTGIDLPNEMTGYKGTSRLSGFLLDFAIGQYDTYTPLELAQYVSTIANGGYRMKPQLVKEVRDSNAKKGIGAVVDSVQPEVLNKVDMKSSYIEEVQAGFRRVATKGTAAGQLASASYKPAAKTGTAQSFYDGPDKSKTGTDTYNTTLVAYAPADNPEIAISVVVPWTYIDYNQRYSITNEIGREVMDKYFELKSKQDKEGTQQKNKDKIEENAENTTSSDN
Procedure: B. subtilis DSM 10 and E. faecalis ATCC 51 299 (equal to DSM 12 956) membrane protein fractions were extracted according to the protocol of Dean et al. with minor modifications.^[ [34] ^] From a growing overnight bacterial culture, 3 L of LB (Luria‐Bertani) medium or TSB (tryptic soy broth) were inoculated with B. subtilis DSM 10 and E. faecalis ATCC 51 299, respectively, to obtain an OD600 = 0.3. The cultures were grown to an OD600 = 0.6–0.8 while shaking at 37 °C and cells were harvested by centrifugation at 4000 g for 30 min at 4 °C. The resulting pellet was washed twice with pre‐cooled PBS and resuspended in 30 mL of ice‐cooled PBS. The suspension was sonicated on ice (10 cycles of 30 s at 50% power for B. subtilis; 12 cycles of 30 s at 80% power for E. faecalis; 2 min intervals between cycles) using an Omni Ruptor 4000 ultrasonic homogenizer (Omni International, Kennesaw, GA, USA). Afterwards, the suspension was centrifuged at 7000 g for 10 min at 4 °C. The clear supernatant was transferred into a 50 mL polypropylene tube and centrifuged in a Beckman Coulter centrifuge equipped with a JA‐20 fixed‐angle rotor (Beckman Coulter, Krefeld, Germany) at 50 000 g for 1 h at 4 °C. The resulting pellet was washed with ice‐cold PBS and centrifuged a second time. The pellet was resuspended in 2 mL PBS and aliquots were stored at −80 °C. The protein content was determined using Bradford reagent (VWR International, Darmstadt, Germany) and Pierce BCA (bicinchoninic acid) protein assay kits (Thermo Fisher Scientific, Waltham, MA, USA) for membrane fractions of B. subtilis and E. faecalis, respectively.
Each dilution was combined with B. subtilis (30 µg) or E. faecalis (15 µg) extracted membrane fractions. As reference samples, membrane fractions incubated with only PBS were prepared. Reaction mixtures were incubated for 20 min at 37 °C while shaking at 400 rpm. Next, Bocillin FL penicillin (Thermo Fisher Scientific, Waltham, MA, USA) was added to obtain a final concentration of 20 µM in the mixture. Samples were incubated for 30 min at 37 °C while shaking at 400 rpm. To denature the samples, 4× Laemmli sample buffer (Bio‐Rad Laboratories, Feldkirchen, Germany) was added, and the samples incubated for 10 min at 70 °C. Afterwards, the samples were centrifuged for 5 min at 13 000 rpm. Samples were separated by SDS‐PAGE using a 10% Tris‐glycine gel for 100 min at 180 V. The bands were visualized using a Typhoon FLA 9500 imager (GE Healthcare, Chicago, IL, USA) with excitation at 473 nm. The gel images were analyzed using ImageJ software. Brightness and contrast were adjusted to improve the signal‐to‐noise ratio and the background signal was subtracted over the whole image. Next, integrated density values of the gel bands were measured and Bocillin FL penicillin labeling of each PBP in antibiotic‐treated samples were set in proportion to the reference sample. IC50 values were calculated with GraphPad Prism software (version 8.0.1) using inhibitor versus normalized response variable slope and least‐squares fit. […] The mean was calculated using the IC50 values of at least two independent assays for each antibiotic.

[11] = Bacillus subtilis, DSM10, B. subtilis DSM 10, median (n = 3), read-out: MIC
[12] = Swiss mice, i.v., ^125I‐labelled, scintigraphy

MIC [1]: > 64 µg/mL | MIC [2]: > 64 µg/mL | MIC [3]: > 64 µg/mL | MIC [4, 11]: 0.1 µg/mL | MIC [5]: 6 µg/mL | MIC [6]: > 64 µg/mL
SMILES: CC1(C)S[C@@H]2[C@H](NC(=O)[C@H](N)c3ccc(O)cc3)C(=O)N2[C@H]1C(=O)O [AMO, amoxicillin]

MIC [1]: > 64 µg/mL | MIC [2]: > 64 µg/mL | MIC [3]: > 64 µg/mL | MIC [5]: 16 µg/mL | MIC [6]: > 64 µg/mL
SMILES: NC(=O)[C@@H]1CC[C@@H]2CN1C(=O)N2OS(=O)(=O)O [AVI, avibactam]

SMILES: C[C@H]1[C@H](NC(=O)/C(=N\OC(C)(C)C(=O)O)c2csc(N)n2)C(=O)N1S(=O)(=O)O [AZT, aztreonam]
MIC [2]: 64 µg/mL | MIC ([4]; Bacillus subtilis, DSM10): 512 µg/mL | MIC [5]: 0.06 µg/mL

MIC [7]: > 64 µg/mL | MIC ([4]; B. subtilis DSM 10, median (n = 3)): > 64 µg/mL | MIC [8]: > 64 µg/mL
SMILES: NC(=O)CCCCCN1C(=O)C=CC1=O [BB linker, 6‐maleinimidohexanamide linker]

SMILES: O=C(O)[C@H]1/C(=C/CO)O[C@@H]2CC(=O)N21 [CLV, clavulanic acid]
MIC [1]: > 64 µg/mL | MIC [2]: > 64 µg/mL | MIC [3]: 64 µg/mL | MIC [5]: 32 µg/mL | MIC [6]: > 64 µg/mL

SMILES: CC(C)(O/N=C(\C(=O)N[C@@H]1C(=O)N2C(C(=O)[O-])=C(C[n+]3ccccc3)CS[C@H]12)c1csc(N)n1)C(=O)NCCCCCCN1C(=O)CC(SC[C@H](NC(=O)[C@H](CCCCN)NC(=O)[C@H](CCCCN)NC(=O)[C@H](CCCCN)NC(=O)[C@H](CCCCN)NC(=O)[C@H](CCCCN)NC(=O)[C@@H](N)CCCCN)C(N)=O)C1=O (stereo partly shown) [CTZ-K6] (H-KKKKKKC(X1)-NH2; N-terminus assumed)
MIC ([4]; DSM 10, 20 h): 0.02 µg/mL | elimination route / biodistribution ([9]; mouse, in vivo, iv): renal elimination

SMILES: CC(C)(O/N=C(\C(=O)N[C@@H]1C(=O)N2C(C(=O)[O-])=C(C[n+]3ccccc3)CS[C@H]12)c1csc(N)n1)C(=O)NCCCCCCN1C(=O)CC(SC[C@H](NC(=O)[C@H](CCCCN)NC(=O)[C@H](CCCCN)NC(=O)[C@H](CCCCN)NC(=O)[C@H](CCCNC(=N)N)NC(=O)[C@H](CCCNC(=N)N)NC(=O)[C@@H](N)CCCNC(=N)N)C(N)=O)C1=O (stereo partly shown) [CTZ-R3K3] (H-RRRKKKC(X1)-NH2; N-terminus assumed)
MIC ([4]; DSM 10, 20 h): 0.008 µg/mL

MIC ([4]; DSM 10, 20 h): 0.06 µg/mL
SMILES: CC(C)(O/N=C(\C(=O)N[C@@H]1C(=O)N2C(C(=O)[O-])=C(C[n+]3ccccc3)CS[C@H]12)c1csc(N)n1)C(=O)NCCCCCCN1C(=O)CC(SC[C@H](NC(=O)[C@H](CCCNC(=N)N)NC(=O)[C@H](CCCNC(=N)N)NC(=O)[C@@H](N)CCCNC(=N)N)C(N)=O)C1=O (stereo partly shown) [CTZ-R3]

SMILES: CC(C)(O/N=C(\C(=O)N[C@@H]1C(=O)N2C(C(=O)[O-])=C(C[n+]3ccccc3)CS[C@H]12)c1csc(N)n1)C(=O)NCCCCCCN1C(=O)CC(SC[C@H](NC(=O)[C@H](CCCCN)NC(=O)[C@H](CCCCN)NC(=O)[C@H](CCCCN)NC(=O)[C@H](CCCCN)NC(=O)[C@H](CCCCN)NC(=O)[C@H](CCCCN)NC(=O)[C@H](N)Cc2ccc(O)cc2)C(N)=O)C1=O (stereo partly shown) [CTZ-yK6] (H-[dY]KKKKKKC(X1)-NH2; N-terminus assumed)
elimination route / biodistribution [9, 12]: eliminated by the kidneys

SMILES: CC(C)(O/N=C(\C(=O)N[C@@H]1C(=O)N2C(C(=O)[O-])=C(C[n+]3ccccc3)CS[C@H]12)c1csc(N)n1)C(=O)NCCCCCCN1C(=O)CC(SC[C@H](NC(=O)[C@H](CCCNC(=N)N)NC(=O)[C@H](CCCNC(=N)N)NC(=O)[C@H](CCCNC(=N)N)NC(=O)[C@H](CCCNC(=N)N)NC(=O)[C@H](CCCNC(=N)N)NC(=O)[C@H](CCCNC(=N)N)NC(=O)[C@H](N)Cc2ccc(O)cc2)C(N)=O)C1=O (stereo partly shown) [CTZ-yR6] (H-[dY]RRRRRRC(X1)-NH2; N-terminus assumed)
elimination route / biodistribution [9, 12]: mainly accumulated in the liver

MIC ([7]; Enterococcus faecalis, ATCC29212, read-out: MIC): 1 µg/mL | MIC [4, 11]: 24 µg/mL | MIC ([8]; Enterococcus casseliflavus, ATCC700327, read-out: MIC): > 64 µg/mL
SMILES: CC(C)(O/N=C(\C(=O)N[C@@H]1C(=O)N2C(C(=O)O)=C(C[n+]3ccccc3)CS[C@H]12)c1csc(N)n1)C(=O)NCCCCCCN1C(=O)C=CC1=O [CTZ–BB linker]

MIC [4, 11]: 0.5 µg/mL
SMILES: C[C@@H](O)[C@H]1C(=O)N2C(C(=O)O)=C(S[C@@H]3CN[C@H](C(=O)Nc4cccc(C(=O)O)c4)C3)[C@H](C)[C@H]12 [ERT, ertapenem, reference compound]

SMILES: C[C@@H](O)[C@H]1C(=O)N2C(C(=O)O)=C(S[C@H]3C[C@@H](C(=O)Nc4cccc(C(=O)O)c4)N(C(=O)C4CCC(CN5C(=O)CC(SC[C@H](NC(=O)[C@H](CCCNC(=N)N)NC(=O)[C@H](CCCNC(=N)N)NC(=O)[C@H](CCCNC(=N)N)NC(=O)[C@H](CCCNC(=N)N)NC(=O)[C@H](CCCNC(=N)N)NC(=O)[C@@H](N)CCCNC(=N)N)C(N)=O)C5=O)CC4)C3)[C@H](C)[C@H]12 (stereo partly shown) [ERT-R6C]
affinity to PBP2A [10]: higher affinity | MIC ([4]; DSM 10, 20 h): < 0.02 µg/mL

From PMC11672299, “Conjugation of Polycationic Peptides Extends the Efficacy Spectrum of β‐Lactam Antibiotics” (Advanced Science, 2024)
